According to ChEMBL document CHEMBL1201862, “PubChem BioAssay data set” (2004):
Calls of active or inactive are those of the source.

Columns and labels:
[1] = target: T1, Sentrin-specific protease 6 (Homo sapiens, UniProt Q9GZR1); format: functional;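 further: Luminescence-based dose-response confirmatory assay of SENP6 inhibition, following up an ultra-high-throughput screen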
T1 sequence (Q9GZR1 whole entry): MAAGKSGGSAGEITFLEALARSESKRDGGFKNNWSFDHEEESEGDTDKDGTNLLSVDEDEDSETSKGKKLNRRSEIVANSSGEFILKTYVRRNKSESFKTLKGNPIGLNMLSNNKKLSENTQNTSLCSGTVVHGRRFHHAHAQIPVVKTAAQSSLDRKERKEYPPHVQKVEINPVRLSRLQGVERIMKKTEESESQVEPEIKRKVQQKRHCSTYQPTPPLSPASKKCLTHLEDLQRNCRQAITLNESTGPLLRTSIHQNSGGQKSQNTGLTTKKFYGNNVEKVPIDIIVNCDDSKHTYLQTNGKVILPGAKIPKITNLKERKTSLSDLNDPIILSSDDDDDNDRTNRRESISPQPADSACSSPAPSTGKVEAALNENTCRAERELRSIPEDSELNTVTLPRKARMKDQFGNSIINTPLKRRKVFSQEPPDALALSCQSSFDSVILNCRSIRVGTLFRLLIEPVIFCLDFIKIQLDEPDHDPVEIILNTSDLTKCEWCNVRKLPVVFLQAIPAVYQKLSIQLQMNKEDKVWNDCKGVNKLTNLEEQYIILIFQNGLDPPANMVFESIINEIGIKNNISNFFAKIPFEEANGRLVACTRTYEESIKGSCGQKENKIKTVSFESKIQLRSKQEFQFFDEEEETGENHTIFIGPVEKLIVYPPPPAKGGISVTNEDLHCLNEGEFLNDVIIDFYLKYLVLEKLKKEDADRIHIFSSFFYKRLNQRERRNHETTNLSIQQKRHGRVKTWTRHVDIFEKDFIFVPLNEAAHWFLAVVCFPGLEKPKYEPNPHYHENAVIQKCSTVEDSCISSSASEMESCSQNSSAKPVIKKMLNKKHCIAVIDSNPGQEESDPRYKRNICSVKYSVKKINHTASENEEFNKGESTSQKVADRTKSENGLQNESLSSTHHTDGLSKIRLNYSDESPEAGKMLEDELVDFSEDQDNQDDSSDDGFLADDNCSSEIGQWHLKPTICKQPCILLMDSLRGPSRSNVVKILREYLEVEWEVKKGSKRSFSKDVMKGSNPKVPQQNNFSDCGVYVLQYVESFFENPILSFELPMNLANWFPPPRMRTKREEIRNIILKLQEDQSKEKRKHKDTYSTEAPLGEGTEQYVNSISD

[2] = target: T2, Sentrin-specific protease 7 (Homo sapiens, UniProt Q9BQF6); format: functional;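 further: Luminescence-based dose-response confirmation of ultra-high-throughput screening hits, measuring inhibition of SENP7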
T2 sequence (Q9BQF6 whole entry): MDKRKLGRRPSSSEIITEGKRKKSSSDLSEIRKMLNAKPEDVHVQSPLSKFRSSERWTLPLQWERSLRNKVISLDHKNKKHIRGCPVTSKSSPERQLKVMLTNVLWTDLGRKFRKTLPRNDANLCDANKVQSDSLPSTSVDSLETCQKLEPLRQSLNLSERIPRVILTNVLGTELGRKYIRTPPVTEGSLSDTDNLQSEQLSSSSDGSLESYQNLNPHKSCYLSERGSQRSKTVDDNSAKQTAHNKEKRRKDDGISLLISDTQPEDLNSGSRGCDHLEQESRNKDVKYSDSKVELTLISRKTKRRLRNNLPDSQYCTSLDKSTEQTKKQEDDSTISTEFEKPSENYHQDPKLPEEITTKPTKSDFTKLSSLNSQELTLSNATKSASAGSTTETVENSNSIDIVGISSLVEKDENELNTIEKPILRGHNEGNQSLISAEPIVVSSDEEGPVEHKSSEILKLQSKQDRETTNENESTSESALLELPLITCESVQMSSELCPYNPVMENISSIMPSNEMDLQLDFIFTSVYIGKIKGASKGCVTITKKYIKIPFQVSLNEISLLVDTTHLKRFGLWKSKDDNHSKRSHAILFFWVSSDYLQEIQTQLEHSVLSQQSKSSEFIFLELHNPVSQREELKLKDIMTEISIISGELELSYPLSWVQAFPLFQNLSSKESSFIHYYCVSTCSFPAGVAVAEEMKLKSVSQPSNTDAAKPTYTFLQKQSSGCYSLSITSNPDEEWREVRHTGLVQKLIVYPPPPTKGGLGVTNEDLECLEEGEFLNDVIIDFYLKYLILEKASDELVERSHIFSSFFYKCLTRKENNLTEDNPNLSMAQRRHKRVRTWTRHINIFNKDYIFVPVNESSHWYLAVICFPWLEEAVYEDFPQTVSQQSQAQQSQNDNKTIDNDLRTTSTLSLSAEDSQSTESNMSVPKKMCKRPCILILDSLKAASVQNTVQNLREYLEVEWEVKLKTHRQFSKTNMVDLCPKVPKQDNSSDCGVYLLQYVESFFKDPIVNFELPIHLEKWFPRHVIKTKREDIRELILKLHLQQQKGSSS

[3] = target: T3, Runt-related transcription factor 1/Core-binding factor subunit beta (Homo sapiens, UniProt Q01196+Q13951); test: Confirmation of compounds inhibiting the binding between the RUNX1 Runt domain and CBFb-SMMHC via a fluorescence resonance energy transfer (FRET) assay. [Related pubchem assays (depositor defined):AID1434, AID1438, AID1496, AID1550, AID1645]; format: protein assay
[4] = target: T3, Runt-related transcription factor 1/Core-binding factor subunit beta; test: inhibitors of RUNX1 Runt–CBFb-SMMHC binding, primary screen, biochemical, FRET, Cerulean-Runt, Venus-CBFb-SMMHC, uHTS (AID 1434); format: protein assay;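 further: partner is the CBFb-SMMHC leukemia fusion protein rather than wild-type CBFb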
[5] = target: T4, Sentrin-specific protease 8 (Homo sapiens, UniProt Q96LD8); format: functional;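 further: luminescence read-out of SENP8 inhibition, dose-response confirmation following an ultra-high-throughput screen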
T4 sequence (Q96LD8 whole entry): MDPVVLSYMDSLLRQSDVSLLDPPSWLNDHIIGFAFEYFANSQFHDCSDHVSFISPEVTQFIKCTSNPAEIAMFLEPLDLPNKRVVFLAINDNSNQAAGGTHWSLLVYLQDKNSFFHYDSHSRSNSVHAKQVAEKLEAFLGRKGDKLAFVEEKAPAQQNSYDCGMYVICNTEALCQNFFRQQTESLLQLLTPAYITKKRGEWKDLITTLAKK

[6] = target: T3, Runt-related transcription factor 1/Core-binding factor subunit beta; test: inhibitors of RUNX1 Runt–CBFb-SMMHC binding, biochemical, TR-FRET (AID 1438); format: protein assay
Caspase-3 = target: T5, Caspase-3 (Homo sapiens, UniProt P42574); format: functional;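 further: Dose-response selectivity test against caspase-3 for candidate inhibitors of sentrin-specific proteases (SENPs)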
T5 sequence (P42574 whole entry): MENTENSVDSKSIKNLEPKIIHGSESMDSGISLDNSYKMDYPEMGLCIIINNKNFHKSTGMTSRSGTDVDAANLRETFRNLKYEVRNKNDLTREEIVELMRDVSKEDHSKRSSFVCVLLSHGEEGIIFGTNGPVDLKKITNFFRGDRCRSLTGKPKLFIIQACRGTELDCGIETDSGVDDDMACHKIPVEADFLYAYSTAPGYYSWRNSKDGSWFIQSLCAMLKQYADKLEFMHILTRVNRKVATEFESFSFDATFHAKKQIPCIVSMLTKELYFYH

[7] = Luminescence Cell-Based Dose Response to Identify Activators of Luciferase Translation or Activity in H4-C Neuroglioblastoma Cells. [Related pubchem assays: 1829 (Project Summary), 1814 (Primary HTS)]; format: functional
[8] = Luminescence Cell-Based Dose Response HTS to Identify Activators of Luciferase Translation or Activity in H4 […] Cells. [Related pubchem assays: 1829 (Project Summary), 1814 (Primary HTS)]; format: functional
H4 = test: Luminescence Cell-Based Dose Response HTS to Identify Activators of 5'UTR Stem-Loop Driven Prion Protein mRNA Translation in H4 Neuroglioblastoma Cells. [Related pubchem assays: 1829 (Project Summary), 1814 (Primary HTS)]; format: functional; settings: Homo sapiens
[9] = target: T6, RNA-binding protein pos-1 (Caenorhabditis elegans, UniProt G5EF15); test: inhibitors of POS-1/mex-3 RNA binding, dose response, biochemical, fluorescence polarization (AID 1964);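 further: purified POS-1 fused to maltose binding protein made in E. coli; potency of compounds blocking POS-1 binding to fluorescent RNA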
T6 sequence (G5EF15 whole entry): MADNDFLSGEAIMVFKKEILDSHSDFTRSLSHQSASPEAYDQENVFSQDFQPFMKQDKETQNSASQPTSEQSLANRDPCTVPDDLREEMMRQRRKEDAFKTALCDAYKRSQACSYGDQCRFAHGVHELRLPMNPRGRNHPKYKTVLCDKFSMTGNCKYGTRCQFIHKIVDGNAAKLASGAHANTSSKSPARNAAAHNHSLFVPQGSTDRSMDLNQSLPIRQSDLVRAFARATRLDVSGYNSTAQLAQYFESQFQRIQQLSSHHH

[10] = Luminescence Cell-Based Dose Confirmation to Identify Activators of 5'UTR Stem-Loop Driven Alpha-Synuclein mRNA Translation in H4 Neuroglioblastoma Cells. [Related pubchem assays: 1829 (Project Summary), 1814 (Primary HTS)]; format: functional
[11] = Luminescence Cell-Based Dose Response to Identify Activators of 5'UTR Stem-Loop Driven Prion Protein mRNA Translation in H4-C Neuroglioblastoma Cells. [Related pubchem assays: 1829 (Project Summary), 1814 (Primary HTS)]; format: functional
Troponin, cardiac muscle = Troponin, cardiac muscle (Homo sapiens, UniProt P19429+P45379+P63316); test: Fluorescence-based biochemical high throughput dose response assay for activators of the calcium sensitivity of cardiac Regulated Thin Filaments (RTF). [Related pubchem assays (depositor defined):AID493008, AID493018, AID504382, AID504383]; format: protein-complex assay
[12] = target: T7, Zinc finger protein mex-5 (Caenorhabditis elegans, UniProt Q9XUB2); test: MEX-5/TCR-2 RNA interaction inhibitors, dose response, biochemical, C. elegans, fluorescence polarization (AID 1960)
T7 sequence (Q9XUB2 whole entry): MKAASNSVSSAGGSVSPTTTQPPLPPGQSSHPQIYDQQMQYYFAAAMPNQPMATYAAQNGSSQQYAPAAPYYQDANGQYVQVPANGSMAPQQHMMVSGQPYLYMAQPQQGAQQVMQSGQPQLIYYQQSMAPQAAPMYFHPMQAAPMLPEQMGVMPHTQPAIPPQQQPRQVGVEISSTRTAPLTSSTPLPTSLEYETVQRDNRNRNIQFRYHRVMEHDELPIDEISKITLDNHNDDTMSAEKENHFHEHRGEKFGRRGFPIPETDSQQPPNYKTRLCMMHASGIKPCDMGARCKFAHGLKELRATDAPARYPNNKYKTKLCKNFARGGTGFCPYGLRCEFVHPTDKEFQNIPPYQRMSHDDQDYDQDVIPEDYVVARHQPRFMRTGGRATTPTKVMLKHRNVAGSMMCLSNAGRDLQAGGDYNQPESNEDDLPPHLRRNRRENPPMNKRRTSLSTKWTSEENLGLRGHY

Hexokinase HKDC1 = target: T8, Hexokinase HKDC1 (Homo sapiens, UniProt Q2TB90); test: HKDC1 hexokinase activators, dose response, biochemical, W721R variant (AID 504730); format: functional
T8 sequence (Q2TB90 whole entry): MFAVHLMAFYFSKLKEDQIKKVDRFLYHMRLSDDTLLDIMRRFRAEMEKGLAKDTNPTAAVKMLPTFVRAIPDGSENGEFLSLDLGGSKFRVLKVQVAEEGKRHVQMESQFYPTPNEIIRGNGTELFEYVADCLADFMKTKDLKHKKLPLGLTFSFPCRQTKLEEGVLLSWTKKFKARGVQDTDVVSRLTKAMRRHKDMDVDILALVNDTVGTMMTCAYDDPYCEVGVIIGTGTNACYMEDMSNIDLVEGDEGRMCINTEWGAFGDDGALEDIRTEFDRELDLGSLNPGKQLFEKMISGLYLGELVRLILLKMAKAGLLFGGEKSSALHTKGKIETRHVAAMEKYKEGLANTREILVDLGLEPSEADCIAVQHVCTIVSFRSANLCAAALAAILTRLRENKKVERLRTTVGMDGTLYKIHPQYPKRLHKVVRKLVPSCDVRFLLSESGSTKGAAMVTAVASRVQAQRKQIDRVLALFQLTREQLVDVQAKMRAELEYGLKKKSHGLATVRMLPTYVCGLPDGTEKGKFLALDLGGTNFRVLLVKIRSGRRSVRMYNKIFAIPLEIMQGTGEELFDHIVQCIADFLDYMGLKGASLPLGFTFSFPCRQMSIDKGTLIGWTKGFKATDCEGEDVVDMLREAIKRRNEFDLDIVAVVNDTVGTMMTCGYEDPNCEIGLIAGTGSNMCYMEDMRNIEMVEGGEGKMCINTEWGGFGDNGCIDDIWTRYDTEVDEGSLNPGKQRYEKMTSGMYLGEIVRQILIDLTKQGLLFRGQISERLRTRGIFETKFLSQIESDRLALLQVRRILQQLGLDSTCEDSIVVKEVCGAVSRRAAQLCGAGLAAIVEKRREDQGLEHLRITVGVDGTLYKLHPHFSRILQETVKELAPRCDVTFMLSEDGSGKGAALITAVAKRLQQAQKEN

HEK293 = test: inhibitors of LMP1-driven NF-kB reporter, dose response, cell-based, HEK293, luciferase, cherry-pick (AID 588343); format: functional; settings: Homo sapiens
Nonstructural protein 1 = Nonstructural protein 1 (Influenza A virus, UniProt Q194T2); format: functional, Influenza A virus (A/California/07/2009(H1N1))
Hexokinase-1 = Hexokinase-1 (Homo sapiens, UniProt P19367); test: hexokinase 1 activators, dose response, selectivity assay for HKDC1 activator project, biochemical (AID 504762); format: functional
[13] = target: T9, Peroxisome proliferator-activated receptor gamma (Homo sapiens, UniProt P37231); test: PPARg ligand-binding domain binders, dose response, PPARg partial agonist project, biochemical, TR-FRET, LanthaScreen (AID 504446)
[14] = target: Peroxisome proliferator-activated receptor alpha (Homo sapiens, UniProt Q07869); test: Late stage assay provider counterscreen for partial agonists of the peroxisome proliferator-activated receptor gamma (PPARg): Luminescence-based cell-based dose response assay for partial agonists of the peroxisome proliferator-activated receptor alpha (PPARA). [Related pubchem assays (depositor defined):AID1051, AID1300, AID1319, AID1679, AID1808, AID504446, AID504447, AID504452, AID504453, AID631]; format: functional
[15] = target: T9, Peroxisome proliferator-activated receptor gamma; test: PPARg partial agonists, dose response, cell-based, luminescence, assay provider (AID 504447); format: functional

O=S(=O)(Nc1ccc(-c2nc3cccnc3s2)cc1)c1ccc(Cl)s1
active: IC50 [1] 25 µM | IC50 [2] 18.8 µM | IC50 [3] 1.87 µM | IC50 [4] 5.46 µM | IC50 [5] 29.1 µM | IC50 [6] 24 µM | IC50 (Caspase-3) 31.2 µM

CN1C(=O)/C(=C/c2ccc(N3CCCCCC3)o2)C(=O)NC1=S
active: EC50 [7] 0.462 µM | EC50 [8] < 0.1 µM | EC50 (H4) 39.5 µM | EC50 [10] 0.206 µM | EC50 [11] 0.325 µM | EC50 (Troponin, cardiac muscle) 2.22 µM
inconclusive: EC50 [12] > 300 µM
> 300 µM (not active): EC50 [9]

CC(=NNC(=S)N1CC2CCC(CC2)C1)c1nccs1
active: EC50 (Hexokinase HKDC1) 1.83 µM | AC50 (HEK293) 0.539 µM | IC50 (Nonstructural protein 1) 13 µM
inactive: EC50 (Hexokinase-1) > 80 µM

O=C(O)CCN1C(=O)/C(=C/c2ccc(F)cc2F)SC1=S
active: IC50 [13] 2.5 µM | EC50 [14] 0.057 µM | EC50 [15] 1.5 µM
